Measurements reported in ChEMBL document CHEMBL4406815, “Natural product derived promising anti-MRSA drug leads: A review” (Bioorg Med Chem, 2019).
≈ marks a conversion by molar mass, not a printed value. One block for each molecule: values may come before it.

Legend:
Staphylococcus aureus [1] = assay: Antibacterial activity against methicillin-sensitive Staphylococcus aureus ATCC 25923 after 24 to 72 hrs by two-fold serial dilution method; assay type: functional
Staphylococcus aureus [2] = assay: Antibacterial activity against methicillin resistant Staphylococcus aureus BAA 1762 after 24 to 72 hrs by two-fold serial dilution method; assay type: functional
Staphylococcus aureus [3] = assay: Antibacterial activity against methicillin-resistant Staphylococcus aureus; assay type: functional
Staphylococcus aureus [4] = assay: Bactericidal activity against methicillin-resistant Staphylococcus aureus; assay type: functional
Erythrocyte = assay: Hemolytic activity against human erythrocytes; assay type: ADME, cell-based
[5] = Cytotoxicity against African green monkey Vero cells assessed as reduction in cell viability by MTT assay; assay type: cell-based; conditions: chlorocebus sabaeus, read-out: MIC
Staphylococcus aureus [6] = assay: Antimicrobial activity against Staphylococcus aureus ATCC 6538 after 24 hrs by colony counting method; assay type: functional; conditions: ATCC 6538, 24 h
Staphylococcus aureus [7] = assay: Antibacterial activity against methicillin-resistant Staphylococcus aureus ATCC 43300; assay type: functional
Staphylococcus aureus [8] = assay: Antibacterial activity against methicillin-resistant Staphylococcus aureus ATCC 33591; assay type: functional
Staphylococcus aureus [9] = assay: Antibacterial activity against methicillin-resistant Staphylococcus aureus TISTR 1466 by two-fold serial dilution method; assay type: functional
Staphylococcus aureus [10] = assay: Antibacterial activity against methicillin-resistant Staphylococcus aureus CGMCC 1.12409; assay type: functional
[11] = Inhibition of methicillin-resistant Staphylococcus aureus pyruvate kinase
Staphylococcus aureus [12] = assay: Antibacterial activity against methicillin-resistant Staphylococcus aureus ATCC 43300 after 18 hrs; assay type: functional, organism-based; conditions: ATCC 43300, 18 h
Staphylococcus aureus [13] = assay: Antibacterial activity against methicillin-resistant Staphylococcus aureus SK1 by two-fold serial dilution method; assay type: functional
HT-29 = assay: Cytotoxicity against human HT-29 cells assessed as reduction in cell viability after 24 hrs by MTS assay; assay type: functional, cell-based; conditions: HT-29, 24 h

SMILES: COC(=O)/C=C/C(=O)c1ccc(Cl)cc1
MIC (Staphylococcus aureus [1]): 0.35 to 0.75 µg/mL (≈ 1.56 to 3.34 µM)
MIC (Staphylococcus aureus [2]): 0.35 to 0.75 µg/mL (≈ 1.56 to 3.34 µM)

SMILES: COc1ccc2c(c1OC)C(O)N(C)c1c-2ccc2cc3c(cc12)OCO3 (stereo not given)
MIC (Staphylococcus aureus [3]): 0.49 to 15.6 µg/mL
MBC (Staphylococcus aureus [4]): 1.95 to 62.5 µg/mL (≈ 5.34 to 171 µM)

SMILES: COc1c(OCCCCN)cc2oc3cc(OCCCCN)c(CC=C(C)C)c(O)c3c(=O)c2c1CC=C(C)C
MHC (Erythrocyte): 80.2 µg/mL
MIC (Staphylococcus aureus [3]): 1560 to 3120 µM

MIC (Staphylococcus aureus [6]): 15 to 62 µg/mL (≈ 32.6 to 135 µM)
SMILES: CCCC(=O)C1=C(O)C(C)(C)C(O)=C(Cc2c(O)c(C)c(OC)c(C(=O)CCC)c2O)C1=O
MCC [5]: 48.1 µg/mL

SMILES: CCCCCCC(C)/C=C(\C)C(=O)O[C@@]1(C)C(=O)C2=COC(C3=C(C)CC(O)CC3=O)=CC2=C(Cl)C1=O (stereo not given in full)
MIC (Staphylococcus aureus [7]): 3.13 to 6.25 µg/mL (≈ 5.89 to 11.8 µM)
MIC (Staphylococcus aureus [8]): 3.13 to 6.25 µg/mL (≈ 5.89 to 11.8 µM)

SMILES: CCCCCCC(C)/C=C(\C)C(=O)O[C@@]1(C)C(=O)C=C2C=C(c3c(C)cccc3O)OC=C2C1=O (stereo not given in full)
MIC (Staphylococcus aureus [7]): 3.13 to 6.25 µg/mL (≈ 6.54 to 13.1 µM)
MIC (Staphylococcus aureus [8]): 3.13 to 6.25 µg/mL (≈ 6.54 to 13.1 µM)

SMILES: CCCCCCC(C)/C=C(\C)C(=O)O[C@@]1(C)C(=O)C2=COC(c3c(C)cccc3O)=CC2=C(Cl)C1=O (stereo not given in full)
MIC (Staphylococcus aureus [7]): 3.13 to 6.25 µg/mL (≈ 6.1 to 12.2 µM)
MIC (Staphylococcus aureus [8]): 3.13 to 6.25 µg/mL (≈ 6.1 to 12.2 µM)

SMILES: CCCCOc1c(OC)cc(/C=C2\SC(=O)NC2=O)c2c1CN1CCc3cc4c(cc3C1C2)OCO4 (stereo not given)
MIC (Staphylococcus aureus [3]): 8 µM

SMILES: C=C(C)/C=C/c1c(C(=O)OC)cc(O)c2[nH]c3ccccc3c12
MIC (Staphylococcus aureus [9]): 4 µg/mL (≈ 13 µM)

SMILES: CC1=C[C@H]2c3c(O)c(O)c4oc5cc(O)cc(O)c5c(=O)c4c3[C@H](c3cc(O)c(O)c4oc5cc(O)cc(O)c5c(=O)c34)[C@H]2C(C)(C)C1
MIC (Staphylococcus aureus [10]): 3.9 µg/mL (≈ 5.98 µM)
MIC (Staphylococcus aureus [7]): 3.9 µg/mL (≈ 5.98 µM)

SMILES: COc1cc(OC)c(C2COc3c(cc(/C=C/C(=O)c4ccco4)c4c3C=CC(C)(C)O4)C2)cc1/C=C/C(=O)c1ccco1 (stereo not given)
MIC (Staphylococcus aureus [3]): 12.5 µg/mL

SMILES: O=C1NC[C@@H](c2c[nH]c3cc(Br)ccc23)N[C@H]1c1c[nH]c2cc(Br)ccc12 (relative stereo) [CIS-3,4-DIHYDROHAMACANTHIN B]
IC50 [11]: 0.016 to 0.06 µM
MIC (Staphylococcus aureus [3]): 12.5 µg/mL

SMILES: COc1c(-c2ccc(O)c(O)c2)oc2cc(O)cc(O)c2c1=O [3-O-METHYLQUERCETIN]
IC50 (Staphylococcus aureus [12]): 6.4 µM

SMILES: C=C(C)C1Cc2c(cc(OC)c3[nH]c4ccccc4c23)C(=O)O1 (stereo not given) [CLAUSAMINE B]
MIC (Staphylococcus aureus [9]): 8 µg/mL (≈ 26 µM)
MIC (Staphylococcus aureus [13]): 0.25 µg/mL (≈ 0.813 µM)

SMILES: COc1ccc2cc1Oc1ccc(cc1)C[C@H]1c3cc(c(OC)cc3CCN1C)Oc1c(OC)c(OC)cc3c1[C@H](C2)N(C)CC3 [FANCHININ]
MIC (Staphylococcus aureus [3]): 6 to 128 µg/mL
MIC (Staphylococcus aureus [4]): 256 to 1020 µg/mL (≈ 411 to 1640 µM)

SMILES: COc1ccc2cc1Oc1ccc(cc1)C[C@H]1c3cc(c(OC)cc3CCN1C)Oc1c(O)c(OC)cc3c1[C@H](C2)N(C)CC3 [FANGCHINOLINE]
MIC (Staphylococcus aureus [3]): 6 to 128 µg/mL
MIC (Staphylococcus aureus [4]): 256 to 1020 µg/mL (≈ 421 to 1680 µM)

SMILES: O=c1cc(-c2ccc(O)c(O)c2)oc2cc(O)cc(O)c12 [LUTEOLIN]
IC50 (HT-29): 45 µM

SMILES: CN[C@H](CC(C)C)C(=O)N[C@H]1C(=O)N[C@@H](CC(N)=O)C(=O)N[C@H]2C(=O)N[C@H]3C(=O)N[C@H](C(=O)N[C@H](C(=O)O)c4cc(O)cc(O)c4-c4cc3ccc4O)[C@H](O)c3ccc(c(Cl)c3)Oc3cc2cc(c3O[C@@H]2O[C@H](CO)[C@@H](O)[C@H](O)[C@H]2O[C@H]2C[C@](C)(N)[C@H](O)[C@H](C)O2)Oc2ccc(cc2Cl)[C@H]1O [VANCOMYCIN]
MIC (Staphylococcus aureus [3]): 1.25 µg/mL
